Source: patent US9714231B2, “Pyrrolidine GPR40 modulators” (BRISTOL-MYERS SQUIBB COMPANY, priority 2012, dated 2017)
Where a name gives a salt, the structure may show the parent alone.

Target: human GPR40 (Homo sapiens, UniProt O14842)
Test: FDSS-based intracellular calcium assay (Human GRP40 in vitro assay)
Assay type: cell-based
Design: 3xFLAG; expressed in transfected cells
Conditions: cells expressing GPR40, intracellular Ca2+ response, FDSS reader; read-out: hGPR40 EC50
Method: To conduct the fluorescent imaging plate reader (FLIPR)-based calcium flux assay to measure intracellular Ca^2+ response, cells expressing GPR40 are plated on 384 well plates (BD BIOCOAT® #356697) at a density of 20,000 cells/20 μL medium per well in phenol red and serum-free DMEM (GIBCO® #21063-029) and incubated overnight. Using BD kit #s 80500-310 or -301, the cells are incubated with 20 μL per well of Hank's buffered salt solution with 1.7 mM probenecid and Fluo-3 at 37° C. for 30 min. Compounds are dissolved in DMSO and diluted to desired concentrations with assay buffer and added to the cells as 3× solution (20 μL per well). Run fluorescence/luminescence reader FDSS (Hamamatsu) to read intracellular Ca^2+ response.

human GPR40, sequence (O14842 whole entry): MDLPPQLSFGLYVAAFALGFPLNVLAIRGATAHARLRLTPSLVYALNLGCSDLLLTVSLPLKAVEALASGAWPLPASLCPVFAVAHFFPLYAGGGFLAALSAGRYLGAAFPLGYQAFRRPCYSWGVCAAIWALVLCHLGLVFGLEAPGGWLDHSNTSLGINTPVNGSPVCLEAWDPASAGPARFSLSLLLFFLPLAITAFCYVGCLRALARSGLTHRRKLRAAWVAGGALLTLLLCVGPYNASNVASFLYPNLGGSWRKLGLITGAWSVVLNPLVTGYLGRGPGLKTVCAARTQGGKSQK

EC50 [nM]	Compound
1500	COc1ccc(F)c(N2CCC(Oc3ccc(N4C[C@H](C(F)(F)F)C[C@H]4CC(=O)O)cn3)CC2)c1 [Example 50, 2-((2S,4R)-1-(6-((1-(2-Fluoro-5-methoxyphenyl)piperidin-4-yl)oxy)pyridin-3-yl)-4-(trifluoromethyl)pyrrolidin-2-yl)acetic acid]
360	CCOc1ccc(F)c(N2CCC(Oc3ccc(N4C[C@H](C(F)(F)F)C[C@@H]4CC(=O)O)c(F)c3)CC2)c1 [Example 143]
420	CCOc1ccc(F)c(N2CCC(Oc3ccc(N4C[C@H](Oc5ccccn5)C[C@@H]4CC(=O)O)cc3)CC2)c1 [Example 75, 2-((2R,4R)-1-(4-(1-(5-Ethoxy-2-fluorophenyl)piperidin-4-yloxy)phenyl)-4-(pyridin-2-yloxy)pyrrolidin-2-yl)acetic acid, TFA]
190	COc1ccc(C(C)C)c(N2CCC(Oc3ccc(N4C[C@H](OC)C[C@@H]4CC(=O)O)cc3)CC2)c1 [Example 60, 2-((2R,4R)-1-(4-(1-(2-Isopropyl-5-methoxyphenyl)piperidin-4-yloxy)phenyl)-4-methoxypyrrolidin-2-yl)acetic acid, TFA]
26	COc1cc(N2CCC(Oc3ccc(N4C[C@H](F)[C@@H](C)[C@@H]4CC(=O)O)cc3)C(C)C2)c(Cl)cn1 (stereo partly drawn) [Example 145]
320	CCOc1ccc(F)c(N2CCC(Oc3ccc(N4C[C@H](OC)[C@@H](C(C)C)[C@@H]4CC(=O)O)cc3)CC2)c1 [Example 89, 2-((2S,3S,4R)-1-(4-((1-(5-Ethoxy-2-fluorophenyl)piperidin-4-yl)oxy)phenyl)-3-isopropyl-4-methoxypyrrolidin-2-yl)acetic acid, TFA]
250	CCOc1ccc(F)c(N2CCC(Oc3ccc(N4CC[C@@H](C)[C@@H]4CC(=O)O)cc3)CC2)c1 [Example 104, 2-((2S,3R)-1-(4-((1-(5-Ethoxy-2-fluorophenyl)piperidin-4-yl)oxy)phenyl)-3-methylpyrrolidin-2-yl)acetic acid, TFA]
230	COc1cc(N2CCC(Oc3ccc(N4CC(C)(C)C[C@@H]4CC(=O)O)cn3)C(C)C2)c(Cl)cn1 (stereo partly drawn) [Example 109, 2-((R)-1-(6-(((3,4-trans)-1-(5-Chloro-2-methoxypyridin-4-yl)-3-methylpiperidin-4-yl)oxy)pyridin-3-yl)-4,4-dimethylpyrrolidin-2-yl)acetic acid, TFA]
110	COc1cc(N2CCC(Oc3ccc(N4C[C@H](OC)[C@@H](C)[C@@H]4CC(=O)O)cn3)CC2)c(Cl)cn1 [Example 97, 2-((2S,3S,4R)-1-(6-((1-(5-Chloro-2-methoxypyridin-4-yl)piperidin-4-yl)oxy)pyridin-3-yl)-4-methoxy-3-methylpyrrolidin-2-yl)acetic acid]
860	CCOc1ccc(F)c(N2CCC(Oc3ccc(N4C[C@H](Oc5cccnc5)C[C@@H]4CC(=O)O)cc3)CC2)c1 [Example 76, 2-((2R,4R)-1-(4-(1-(5-Ethoxy-2-fluorophenyl)piperidin-4-yloxy)phenyl)-4-(pyridin-3-yloxy)pyrrolidin-2-yl)acetic acid]
230	COc1cc(N2CCC(Oc3ccc(N4C[C@H](OC)C[C@@H]4CC(=O)O)cc3Cl)C(C)C2)c(Cl)cn1 (stereo partly drawn) [Example 137, 2-((2R,4R)-1-(3-Chloro-4-(((3,4-trans)-1-(5-chloro-2-methoxypyridin-4-yl)-3-methylpiperidin-4-yl)oxy)phenyl)-4-methoxypyrrolidin-2-yl)acetic acid, sodium salt]
740	CCOc1ccc(F)c(N2CCC(Oc3ccc(N4C[C@H](C(F)(F)F)C[C@@H]4CC(=O)O)cc3)C(Cc3ccccc3)C2)c1 (single isomer, unassigned) [Example 36, Isomer 2, HCl]
340	COc1ccc(F)c(N2CCC(Oc3ccc(N4C[C@H](OC)C[C@@H]4CC(=O)O)cc3)C(C)C2)c1 (single isomer, unassigned) [Example 17, Isomer 1]
2300	COc1cc(N2CCC(Oc3ccc(N4C[C@H](OC)C[C@@H]4CC(=O)O)cc3)C(CC#N)C2)c(Cl)cn1 (stereo partly drawn) [Example 93, 2-((2R,4R)-1-(4-(((3,4-trans)-1-(5-Chloro-2-methoxypyridin-4-yl)-3-(cyanomethyl)piperidin-4-yl)oxy)phenyl)-4-methoxypyrrolidin-2-yl)acetic acid, TFA]
310	CCOc1ccc(F)c(N2CCC(Oc3ccc(N4C[C@H](Oc5cccc(C#N)c5)C[C@@H]4CC(=O)O)cc3)CC2)c1 [Example 68, 2-((2R,4R)-4-(3-Cyanophenoxy)-1-(4-(1-(5-ethoxy-2-fluorophenyl)piperidin-4-yloxy)phenyl)pyrrolidin-2-yl)acetic acid]
60	COc1cc(N2CCC(Oc3ccc(N4CC[C@@H](C)[C@@H]4CC(=O)O)cn3)C(C)C2)c(Cl)cn1 (stereo partly drawn) [Example 105, 2-((2S,3R)-1-(6-(((3,4-trans)-1-(5-Chloro-2-methoxypyridin-4-yl)-3-methylpiperidin-4-yl)oxy)pyridin-3-yl)-3-methylpyrrolidin-2-yl)acetic acid]
110	CCOc1ccc(F)c(N2CCC(Oc3ccc(N4C[C@H](OC)[C@@H](C)[C@@H]4CC(=O)O)cc3F)C(C)C2)c1 (stereo partly drawn) [Example 100, 2-((2S,3S,4R)-1-(4-(((3,4-trans)-1-(5-Ethoxy-2-fluorophenyl)-3-methylpiperidin-4-yl)oxy)-3-fluorophenyl)-4-methoxy-3-methylpyrrolidin-2-yl)acetic acid]
3200	COc1ccc(F)c(N2CCC(N(C)c3ccc(N4C[C@H](OC)C[C@@H]4CC(=O)O)cn3)CC2)c1 [Example 37, 2-((2R,4R)-1-(6-((1-(2-Fluoro-5-methoxyphenyl)piperidin-4-yl)(methyl)amino)pyridin-3-yl)-4-methoxypyrrolidin-2-yl)acetic acid, HCl]
320	COc1cc(N2CCC(Oc3ccc(N4C[C@H](OC)[C@@H](C)[C@@H]4CC(=O)O)cn3)C(C)C2)c(C2CCCC2(C)C)cn1 (single isomer, unassigned) [Example 150, Isomer 1, HCl]
140	CCOc1ccc(F)c(N2CCC(Oc3ccc(N4C[C@H](Oc5cccc(OC(F)(F)F)c5)C[C@@H]4CC(=O)O)cc3)CC2)c1 [Example 77, 2-((2R,4R)-1-(4-(1-(5-Ethoxy-2-fluorophenyl)piperidin-4-yloxy)phenyl)-4-(3-(trifluoromethoxy)phenoxy)pyrrolidin-2-yl)acetic acid]
580	COc1cc(N2CCC(Oc3ccc(N4C[C@H](C(F)(F)F)C[C@@H]4CC(=O)O)cc3F)C(C)C2)c(Cl)cn1 (stereo partly drawn) [Example 134, 2-((2R,4R)-1-(4-(((3,4-trans)-1-(5-Chloro-2-methoxypyridin-4-yl)-3-methylpiperidin-4-yl)oxy)-3-fluorophenyl)-4-(trifluoromethyl)pyrrolidin-2-yl)acetic acid]
4800	COc1cc(N2CCC(Oc3ccc(N4C[C@H](OC)C[C@@H]4CC(=O)O)cc3)C(C)C2)c(F)cn1 (single isomer, unassigned) [Example 83, Isomer 1]
63	COc1cc(N2CCC(Oc3ccc(N4C[C@H](F)[C@@H](C)[C@@H]4CC(=O)O)cc3F)C(C)C2)c(Cl)cn1 (stereo partly drawn) [Example 156, 2-((2S,3S,4R)-1-(4-(((3,4-trans)-1-(5-Chloro-2-methoxypyridin-4-yl)-3-methylpiperidin-4-yl)oxy)-3-fluorophenyl)-4-fluoro-3-methylpyrrolidin-2-yl)acetic acid]
1800	COCC1CN(c2cc(OC)ncc2Cl)CCC1Oc1ccc(N2C[C@H](C(F)(F)F)C[C@@H]2CC(=O)O)cc1 (single isomer, unassigned) [Example 172, Isomer 1, TFA]
170	CCOc1ccc(F)c(N2CCC(Oc3ccc(N4C[C@H](Oc5cccc(C)c5)C[C@@H]4CC(=O)O)cc3)CC2)c1 [Example 72, 2-((2R,4R)-1-(4-(1-(5-Ethoxy-2-fluorophenyl)piperidin-4-yloxy)phenyl)-4-(m-tolyloxy)pyrrolidin-2-yl)acetic acid]
1300	CCOc1ccc(F)c(N2CCC(Oc3ccc(N4C[C@H](Oc5ccc(C#N)cc5)CC4CC(=O)O)cc3)CC2)c1 (stereo partly drawn) [Example 128, 2-((4R)-4-(4-Cyanophenoxy)-1-(4-((1-(5-ethoxy-2-fluorophenyl)piperidin-4-yl)oxy)phenyl)pyrrolidin-2-yl)acetic acid, HCl]
3400	COc1cc(N2CCC(Oc3ccc(N4C[C@H](OC)C[C@@H]4CC(=O)O)cc3)C(Cn3cnnn3)C2)c(Cl)cn1 (stereo partly drawn) [Example 94, 2-((2R,4R)-1-(4-(((3,4-trans)-3-((1H-Tetrazol-1-yl)methyl)-1-(5-chloro-2-methoxypyridin-4-yl)piperidin-4-yl)oxy)phenyl)-4-methoxypyrrolidin-2-yl)acetic acid, TFA]
840	COc1cc(N2CCC(Oc3ccc(N4C[C@H](OC)C[C@@H]4CC(=O)O)cc3)CC2)c(F)cc1CC(C)C [Example 30, 2-((2R,4R)-1-(4-((1-(2-Fluoro-4-isobutyl-5-methoxyphenyl)piperidin-4-yl)oxy)phenyl)-4-methoxypyrrolidin-2-yl)acetic acid, TFA]
505	CCOc1ccc(F)c(N2CCC(Oc3ccc(N4C[C@H](C(F)(F)F)C[C@@H]4CC(=O)O)cc3)C(C)C2C)c1 (single isomer, unassigned) [Example 44, Isomer 2, HCl]
160	CCOc1ccc(F)c(N2CCC(Oc3ccc(N4C[C@H](OC)C[C@@H]4CC(=O)O)cc3)CC2)c1 [Example 107, 2-((2R,4R)-1-(4-((1-(5-Ethoxy-2-fluorophenyl)piperidin-4-yl)oxy)phenyl)-4-methoxypyrrolidin-2-yl)acetic acid, TFA]
